# Values joined by “and” are separate entries in the source; they are usually repeats but may differ in a detail not shown here. Identical values can stand only once.
# Columns and labels:
# PRMT5:MEP50 = test system: PRMT5:MEP50; set-up: method as in ref 1 (a number printed in a supplementary file, which may have a reference list of its own: not looked up in the article's list); settings: HTRF, H4R3 monomethylation; read-out: Biochemical (nM), IC50; cited from earlier work
# MAT2A [1] = test: BRET probe sensitivity to MAT2A inhibition (Compound A) in live HEK293 cells expressing NLuc-PRMT5; type: cell-based; settings: Log([Compound A]), 37 °C
# MAT2A [2] = test: as above; type: cell-based; settings: for normalized BRET signal (Figure S3D) / Normalized BRET probe signal: Log([Compound A]); for normalized BRET signal (Figure S3D): replicates; for Normalized BRET probe signal: 37 °C
# Description: To measure BRET probe sensitivity to both MAT2A inhibition and exogenous MTA in live cells, HEK293 cells were pre-treated with 30 nM CBH-002 and incubated at 37 °C and 5% CO2 for 2 h. For MAT2A inhibition, a 20 µM, 3-fold, 11 pt titration series of Compound A (Selleckchem) was added to wells. Cells were incubated either at 37 °C (Fig. 3D) or room temperature (Fig. S3D). Data were normalized using Eq. (2), where BRETMIN = instrument background (no CBH-002), and BRETMAX = 2 h vehicle treatment, and fit curves were generated using Eq. (1). For MTA sensitivity cells were treated with a 1 mM, 11 pt, 2-fold series of MTA (Sigma) and cells were incubated at room temperature for 2 h, reading in 15 min intervals. Data were normalized using Eq. (2), where BRETMIN = instrument background (no CBH-002), and BRETMAX = 2 h + vehicle treatment. Data were fit with Eq. (1).
# Z-138 cells = test system: Z-138 cells; set-up: method as in ref 2,3 (a number printed in a supplementary file, which may have a reference list of its own: not looked up in the article's list); settings: read-out: Proliferation (nM), IC50; cited from earlier work
# [3] = biological target: NLuc-PRMT5 co-expressed with WDR77 (Homo sapiens, UniProt O14744); test: Compound EC50 titrations against MTA, NanoBRET in HEK293 (NLuc-PRMT5 + WDR77), with global Gaddum/Schild or Morrison fits
# Sequence of NLuc-PRMT5 co-expressed with WDR77 (O14744 whole entry): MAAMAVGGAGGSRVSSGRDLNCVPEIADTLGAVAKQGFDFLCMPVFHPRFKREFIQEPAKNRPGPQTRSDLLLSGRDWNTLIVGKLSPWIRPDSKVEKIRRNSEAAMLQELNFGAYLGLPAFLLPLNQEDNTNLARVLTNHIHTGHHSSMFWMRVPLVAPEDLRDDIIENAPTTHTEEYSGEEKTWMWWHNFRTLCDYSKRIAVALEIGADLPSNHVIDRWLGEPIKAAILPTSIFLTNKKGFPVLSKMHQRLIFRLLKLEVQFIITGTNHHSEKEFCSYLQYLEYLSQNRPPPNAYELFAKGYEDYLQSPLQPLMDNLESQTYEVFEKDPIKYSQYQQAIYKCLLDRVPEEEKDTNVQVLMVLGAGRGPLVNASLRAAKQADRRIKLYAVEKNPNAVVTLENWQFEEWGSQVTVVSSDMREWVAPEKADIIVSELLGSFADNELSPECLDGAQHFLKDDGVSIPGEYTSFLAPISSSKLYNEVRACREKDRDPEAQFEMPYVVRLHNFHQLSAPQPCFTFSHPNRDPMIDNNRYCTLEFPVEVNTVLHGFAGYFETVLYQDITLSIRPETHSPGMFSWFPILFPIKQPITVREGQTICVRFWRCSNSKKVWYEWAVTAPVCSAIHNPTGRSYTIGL
# Sequence of NLuc-PRMT5 co-expressed with WDR77 (Q9BQA1 whole entry partner): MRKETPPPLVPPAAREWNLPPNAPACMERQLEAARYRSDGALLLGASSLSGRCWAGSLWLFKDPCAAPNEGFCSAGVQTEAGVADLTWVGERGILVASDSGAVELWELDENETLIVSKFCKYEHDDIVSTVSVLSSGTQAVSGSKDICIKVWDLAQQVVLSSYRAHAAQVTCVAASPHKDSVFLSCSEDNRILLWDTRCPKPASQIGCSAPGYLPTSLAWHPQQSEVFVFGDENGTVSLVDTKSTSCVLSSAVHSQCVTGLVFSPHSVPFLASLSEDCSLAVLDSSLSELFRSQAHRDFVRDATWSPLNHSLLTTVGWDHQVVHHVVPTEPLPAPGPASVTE
# Description: MTA (Sigma) was prepared at 100× in 100% DMSO and diluted to 10× in Opti-MEM. Inhibitors were run as 11 pt, 3-fold dilution curves and MTA as a seven point, 3-fold dilution curve starting at 100 μM. Cells were incubated for 2 h at 37 °C and 5% CO2 prior to BRET measurements. Data was normalized using Eq. (2) where BRETMIN = saturating compound + maximum [MTA], and BRETMAX = BRET signal under vehicle conditions. Curves were fit using Eq. (3), and EC50 values were plotted against MTA concentration to determine the linear range of MTA detection.
structure (smiles),measurement,setting,value
CC(=O)N1CCC(Nc2cc(C(=O)NC[C@H](O)CN3CCc4ccccc4C3)ncn2)CC1 [GSK3326595],IC50,PRMT5:MEP50,6.2 nM
Nc1nc(=O)n(-c2ccccc2Cl)c2nc(C(F)(F)F)ccc12 [Compound A],Normalized BRET probe signal,"MAT2A [1]; uM 0.82, Time (h) 6",54.59 and 55.03 and 49.39
same,Normalized BRET probe signal,"MAT2A [1]; uM 1.30, Time (h) 2",83.43 and 85.48 and 85.77
same,Normalized BRET probe signal,"MAT2A [1]; uM 1.30, Time (h) 5",54.62 and 56.32 and 57.46
same,Normalized BRET probe signal,"MAT2A [1]; uM -1.56, Time (h) 4",64.62 and 64.77 and 65.94
same,normalized BRET signal (Figure S3D),"MAT2A [2]; uM 0.35, Time 0 min",102.31 and 101.27 and 102.49
same,normalized BRET signal (Figure S3D),"MAT2A [2]; uM 0.35, Time 15 min",102.22 and 100.75 and 100.92
same,normalized BRET signal (Figure S3D),"MAT2A [2]; uM 0.35, Time 30 min",98.94 and 102.77 and 99.88
same,normalized BRET signal (Figure S3D),"MAT2A [2]; uM 0.35, Time 45 min",101.50 and 99.61 and 97.49
same,normalized BRET signal (Figure S3D),"MAT2A [2]; uM 0.35, Time 60 min",100.91 and 99.04 and 97.98
same,normalized BRET signal (Figure S3D),"MAT2A [2]; uM 0.35, Time 75 min",100.10 and 98.57 and 96.49
same,normalized BRET signal (Figure S3D),"MAT2A [2]; uM 0.35, Time 90 min",99.02 and 98.37 and 97.43
same,normalized BRET signal (Figure S3D),"MAT2A [2]; uM 0.35, Time 120 min",96.41 and 97.99 and 95.04
same,normalized BRET signal (Figure S3D),"MAT2A [2]; uM 0.82, Time 0 min",101.24 and 100.09 and 103.66
same,normalized BRET signal (Figure S3D),"MAT2A [2]; uM 0.82, Time 15 min",101.29 and 99.47 and 102.07
same,normalized BRET signal (Figure S3D),"MAT2A [2]; uM 0.82, Time 30 min",99.28 (2×) and 100.85
same,normalized BRET signal (Figure S3D),"MAT2A [2]; uM 0.82, Time 45 min",99.67 and 98.96 and 100.10
same,normalized BRET signal (Figure S3D),"MAT2A [2]; uM 0.82, Time 60 min",100.24 and 98.62 and 99.55
same,normalized BRET signal (Figure S3D),"MAT2A [2]; uM 0.82, Time 75 min",100.92 and 98.42 and 98.44
same,normalized BRET signal (Figure S3D),"MAT2A [2]; uM 0.82, Time 90 min",100.92 and 98.07 and 97.73
same,normalized BRET signal (Figure S3D),"MAT2A [2]; uM 0.82, Time 120 min",98.05 and 98.30 and 97.43
same,Normalized BRET probe signal,"MAT2A [2]; uM 0.82, Time (h) 2",80.32 and 82.63 and 81.99
same,Normalized BRET probe signal,"MAT2A [2]; uM 0.82, Time (h) 4",62.79
same,Normalized BRET probe signal,"MAT2A [2]; uM 0.82, Time (h) 5",55.09 and 56.94 and 59.00
same,normalized BRET signal (Figure S3D),"MAT2A [2]; uM 1.30, Time 0 min",100.00
same,normalized BRET signal (Figure S3D),"MAT2A [2]; uM 1.30, Time 15 min",100.00
same,normalized BRET signal (Figure S3D),"MAT2A [2]; uM 1.30, Time 30 min",100.00
same,normalized BRET signal (Figure S3D),"MAT2A [2]; uM 1.30, Time 45 min",100.00
same,normalized BRET signal (Figure S3D),"MAT2A [2]; uM 1.30, Time 60 min",100.00
same,normalized BRET signal (Figure S3D),"MAT2A [2]; uM 1.30, Time 75 min",100.00
same,normalized BRET signal (Figure S3D),"MAT2A [2]; uM 1.30, Time 90 min",100.00
same,normalized BRET signal (Figure S3D),"MAT2A [2]; uM 1.30, Time 120 min",100.00
same,Normalized BRET probe signal,"MAT2A [2]; uM 1.30, Time (h) 3",81.83 and 81.36 and 78.63
same,Normalized BRET probe signal,"MAT2A [2]; uM 1.30, Time (h) 4",64.66 and 66.78 and 66.04
same,Normalized BRET probe signal,"MAT2A [2]; uM 1.30, Time (h) 6",52.27 and 54.37 and 54.09
same,normalized BRET signal (Figure S3D),"MAT2A [2]; uM 1.30, Time […]",100.00
same,normalized BRET signal (Figure S3D),"MAT2A [2]; uM -0.13, Time 0 min",102.61
same,normalized BRET signal (Figure S3D),"MAT2A [2]; uM -0.13, Time 30 min",99.28
same,normalized BRET signal (Figure S3D),"MAT2A [2]; uM -0.13, Time 45 min",99.89 and 99.35 and 98.26
same,normalized BRET signal (Figure S3D),"MAT2A [2]; uM -0.13, Time 60 min",99.27 and 98.76 and 97.87
same,normalized BRET signal (Figure S3D),"MAT2A [2]; uM -0.13, Time 75 min",99.29 and 98.14 and 96.57
same,normalized BRET signal (Figure S3D),"MAT2A [2]; uM -0.13, Time 90 min",99.41 and 97.78 and 96.89
same,normalized BRET signal (Figure S3D),"MAT2A [2]; uM -0.13, Time 120 min",97.11 and 97.69
same,Normalized BRET probe signal,"MAT2A [2]; uM -1.56, Time (h) 2",86.27 and 89.51 and 86.94
same,Normalized BRET probe signal,"MAT2A [2]; uM -1.56, Time (h) 3",78.52 and 78.24 and 76.36
same,Normalized BRET probe signal,"MAT2A [2]; uM -1.56, Time (h) 5",56.30 and 59.42 and 61.19
same,Normalized BRET probe signal,"MAT2A [2]; uM -1.56, Time (h) 6",57.39 and 58.36 and 56.05
same,Normalized BRET probe signal,"MAT2A [2]; uM -2.04, Time (h) 2",91.78 and 93.83 and 92.35
same,Normalized BRET probe signal,"MAT2A [2]; uM -2.04, Time (h) 3",84.09 and 82.20 and 80.64
same,Normalized BRET probe signal,"MAT2A [2]; uM -2.04, Time (h) 4",71.87 and 73.84 and 72.51
same,Normalized BRET probe signal,"MAT2A [2]; uM -2.04, Time (h) 5",61.86 and 65.39 and 67.66
same,Normalized BRET probe signal,"MAT2A [2]; uM -2.04, Time (h) 6",67.16 and 64.98 and 63.98
same,Normalized BRET probe signal,"MAT2A [2]; uM -2.52, Time (h) 2",97.92 and 101.07 and 97.78
same,Normalized BRET probe signal,"MAT2A [2]; uM -2.52, Time (h) 3",92.42 and 90.78 and 89.69
same,Normalized BRET probe signal,"MAT2A [2]; uM -2.52, Time (h) 4",81.28 and 83.71 and 82.94
same,Normalized BRET probe signal,"MAT2A [2]; uM -2.52, Time (h) 5",74.64 and 76.80 and 79.27
same,Normalized BRET probe signal,"MAT2A [2]; uM -2.52, Time (h) 6",75.70 and 75.54 and 75.07
same,Normalized BRET probe signal,"MAT2A [2]; uM -2.99, Time (h) 2",99.19 and 102.22 and 99.77
same,Normalized BRET probe signal,"MAT2A [2]; uM -2.99, Time (h) 3",95.84 and 93.35 and 94.20
same,Normalized BRET probe signal,"MAT2A [2]; uM -2.99, Time (h) 4",94.50 and 92.51 and 93.76
same,Normalized BRET probe signal,"MAT2A [2]; uM -2.99, Time (h) 5",87.56 and 91.04 and 95.19
same,Normalized BRET probe signal,"MAT2A [2]; uM -2.99, Time (h) 6",89.25 and 91.90 and 87.75
same,Normalized BRET probe signal,"MAT2A [2]; uM -3.47, Time (h) 2",98.78 and 102.46 and 100.43
same,Normalized BRET probe signal,"MAT2A [2]; uM -3.47, Time (h) 3",98.17 and 97.18 and 96.26
same,Normalized BRET probe signal,"MAT2A [2]; uM -3.47, Time (h) 4",96.70 and 95.88 and 97.43
same,Normalized BRET probe signal,"MAT2A [2]; uM -3.47, Time (h) 5",93.94 and 96.00 and 96.68
same,Normalized BRET probe signal,"MAT2A [2]; uM -3.47, Time (h) 6",97.50 and 96.53 and 90.92
same,Time to plateau of BRET inhibition,"MAT2A [2]; live cells, pre-equilibrated CBH-002, 37 °C",~ 5 h
same,Effect on CBH-002 binding at room temperature,"MAT2A [2]; room temperature, 2-h interval",did not impact CBH-002 binding
O=C(NC[C@H](O)CN1CCc2ccccc2C1)c1cc(NC2COC2)ncn1 [EPZ015666],IC50,Z-138 cells,62 nM
same,Schild slope,"[3]; Global Gaddum/Schild EC50 shift fit, MTA titration, HEK293",1.3 (1.15 - 1.47)
same,Hill slope,"[3]; [MTA] 0 μM, HEK293",0.81
same,Hill slope,"[3]; [MTA] 11.11 μM, HEK293",0.77
same,Hill slope,"[3]; [MTA] 100 μM, HEK293",0.72
same,Hill slope,"[3]; [MTA] 300 μM, HEK293",0.87
same,Hill slope (Global/Schild fit),"[3]; constant across [MTA], constrained to 1 for PF06939999 and GSK3326595",0.75 (0.73 - 0.78)

# From paper PMC12675575, “A BRET biosensor for measuring uncompetitive engagement of PRMT5 complexes in cells” (Nature Communications, 2025)
